Experimental data reported in US9783556B2, “Kinase inhibitors” (RESPIVERT LIMITED, priority 2012, dated 2017).

Key:
GSK 3α = GSK 3α (Homo sapiens (Human), UniProt P49840); assay: GSK 3α enzyme inhibition (Z-LYTE FRET); format: biochemical; details: read-out: IC50 Values for Enzyme Inhibition GSK3α
Description: (§1) The enzyme inhibitory activities of compounds disclosed herein are determined by FRET using synthetic peptides labelled with both donor and acceptor fluorophores (Z-LYTE, Invitrogen Ltd., Paisley, UK).
The following two assay variants can be used for determination of GSK 3α inhibition.
The inhibitory activities of compounds of the invention against the GSK 3α enzyme isoform (Invitrogen), are evaluated by determining the level of activation/phosphorylation of the target peptide. The GSK3-α protein (500 ng/mL, 2.5 μL) is mixed with the test compound (2.5 μL at either 4 μg/mL, 0.4 μg/mL, 0.04 μg/mL, or 0.004 μg/mL) for 2 hr at RT. The FRET peptide (8 μM, 2.5 μL), which is a phosphorylation target for GSK3α, and ATP (40 μM, 2.5 μL) are then added to the enzyme/compound mixture and the resulting mixture incubated for 1 hr. Development reagent (protease, 5 μL) is added for 1 hr prior to detection in a fluorescence microplate reader (Varioskan® Flash, ThermoFisher Scientific).
(§2) In all cases, the site-specific protease cleaves non-phosphorylated peptide only and eliminates the FRET signal. Phosphorylation levels of each reaction are calculated using the ratio of coumarin emission (donor) over fluorescein emission (acceptor), for which high ratios indicate high phosphorylation and low ratios indicate low phosphorylation levels. The percentage inhibition of each reaction is calculated relative to non-inhibited control and the 50% inhibitory concentration (IC50 value) is then calculated from the concentration-response curve.
This method follows the same steps as Method 1 above, but utilises a shorter period of mixing of the test compound (105 minutes instead of 2 hours) with the GSK3-α protein.

PBMCs [1] = assay: LPS-induced TNFα/IL-8 release in PBMC cells; format: cell-based; details: Homo sapiens, LPS-stimulated PBMCs, IL-8, read-out: IC50 Values for Inhibition of Cytokine Release PBMCs IL-8
Description: Peripheral blood mononuclear cells (PBMCs) from healthy subjects are separated from whole blood using a density gradient (Lymphoprep, Axis-Shield Healthcare). The PBMCs are seeded in 96 well plates and treated with compounds at the desired concentration for 2 hours before addition of 1 ng/mL LPS (Escherichia Coli 0111:B4 from Sigma Aldrich) for 24 hours under normal tissue culture conditions (37° C., 5% CO2). The supernatant is harvested for determination of IL-8 and TNFα concentrations by sandwich ELISA (Duo-set, R&D systems) and read on the fluorescence microplate reader (Varioskan® Flash, ThermoFisher Scientific). The concentration at 50% inhibition (IC50) of IL-8 and TNFα production is calculated from the dose response curve.

[2] = molecular target: p38 MAPKα isoform (MAPK14) (Homo sapiens (Human), UniProt Q16539); assay: p38 MAPKα enzyme inhibition (Z-LYTE FRET); format: biochemical
Description: as §1
The following two assay variants can be used for determination of p38 MAPKα inhibition.
The inhibitory activities of test compounds against the p38 MAPKα isoform (MAPK14: Invitrogen), are evaluated indirectly by determining the level of activation/phosphorylation of the down-stream molecule, MAPKAP-K2. The p38 MAPKα protein (80 ng/mL, 2.5 μL) is mixed with the test compound (2.5 μL of either 4 μg/mL, 0.4 μg/mL, 0.04 μg/mL or 0.004 μg/mL) for 2 hr at RT. […] The mixture is incubated for 1 hr at RT. Development reagent (protease, 5 μL) is added for 1 hr prior to detection in a fluorescence microplate reader (Varioskan® Flash, ThermoFisher Scientific).
This method follows the same steps as Method 1 above, but utilises a higher concentration of the p38 MAPKα protein (2.5 μL of 200 ng/mL protein instead of 2.5 μL of 80 ng/mL protein) for mixing with the test compound.
as §2

c-Src = c-Src (Homo sapiens (Human), UniProt P12931); assay: c-Src enzyme inhibition (Z-LYTE FRET); format: biochemical
Description: as §1
(§3) The inhibitory activities of compounds of the invention against c-Src and Syk enzymes (Invitrogen), are evaluated in a similar fashion to that described hereinabove. The relevant enzyme (3000 ng/mL or 2000 ng/mL respectively, 2.5 μL) is incubated with the test compound (either 4 μg/mL, 0.4 μg/mL, 0.04 μg/mL, or 0.004 μg/mL, 2.5 μL each) for 2 hr at RT. The FRET peptides (8 μM, 2.5 μL), and appropriate ATP solutions (2.5 μL, 800 μM for c-Src, and 60 μM ATP for Syk) are then added to the enzymes/compound mixtures and incubated for 1 hr. Development reagent (protease, 5 μL) is added for 1 hr prior to detection in a fluorescence microplate reader (Varioskan® Flash, ThermoFisher Scientific).
as §2

Syk = Syk (Homo sapiens (Human), UniProt P43405); assay: Syk enzyme inhibition (Z-LYTE FRET); format: biochemical
Description: as §1, §3, §2

PBMCs [3] = assay: IL-2 and IFN gamma release in CD3/CD28 stimulated PBMC cells; format: cell-based; details: Homo sapiens, IL-2, read-out: IC50 Values for Inhibition of Cytokine Release PBMCs IL-2
Description: PBMCs from healthy subjects are separated from whole blood using a density gradient (Lymphoprep, Axis-Shield Healthcare). Cells are added to a 96 well plate pre-coated with a mixture of CD3/CD38 monoclonal antibodies (0.3 μg/mL eBioscience and 3 μg/mL BD Pharmingen respectively). Compound at the desired concentration is then added to the wells and the plate left for 3 days under normal tissue culture conditions. Supernatants are harvested and IL-2 and IFN gamma release determined by Sandwich ELISA (Duo-set, R&D System). The IC50 is determined from the dose response curve.

HT29 cells = assay: IL-1β-induced IL-8 release in HT29 cells; format: cell-based; details: Homo sapiens, HT-29, IL-1β-stimulated HT29 cells, read-out: IC50 Values for Inhibition of Cytokine Release HT29 cells IL-8
Description: HT29 cells, a human colon adenocarcinoma cell line, are plated in a 96 well plate (24 hrs) and pre-treated with compounds at the desired concentration for 2 hours before addition of 5 ng/mL of IL-1β (Abcam) for 24 hours. Supernatants are harvested for IL-8 quantification by Sandwich ELISA (Duo-set, R&D System). The IC50 is determined from the dose response curve.

c-Src, sequence (P12931 whole entry, looked up): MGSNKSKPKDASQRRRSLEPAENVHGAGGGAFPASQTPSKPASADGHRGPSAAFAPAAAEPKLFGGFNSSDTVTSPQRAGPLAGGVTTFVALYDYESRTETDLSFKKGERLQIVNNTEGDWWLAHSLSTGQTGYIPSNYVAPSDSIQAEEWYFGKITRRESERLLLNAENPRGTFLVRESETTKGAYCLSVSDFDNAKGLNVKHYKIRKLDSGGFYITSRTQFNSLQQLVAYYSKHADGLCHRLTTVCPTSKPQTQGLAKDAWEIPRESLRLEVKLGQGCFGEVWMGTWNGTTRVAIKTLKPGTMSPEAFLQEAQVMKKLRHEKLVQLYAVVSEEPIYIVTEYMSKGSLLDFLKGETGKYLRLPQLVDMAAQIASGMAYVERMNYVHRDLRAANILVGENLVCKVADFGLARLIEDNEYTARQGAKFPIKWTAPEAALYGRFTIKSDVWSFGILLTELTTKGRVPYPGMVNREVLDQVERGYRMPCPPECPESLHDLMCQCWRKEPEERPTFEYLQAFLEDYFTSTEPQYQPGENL
GSK 3α, sequence (P49840 whole entry): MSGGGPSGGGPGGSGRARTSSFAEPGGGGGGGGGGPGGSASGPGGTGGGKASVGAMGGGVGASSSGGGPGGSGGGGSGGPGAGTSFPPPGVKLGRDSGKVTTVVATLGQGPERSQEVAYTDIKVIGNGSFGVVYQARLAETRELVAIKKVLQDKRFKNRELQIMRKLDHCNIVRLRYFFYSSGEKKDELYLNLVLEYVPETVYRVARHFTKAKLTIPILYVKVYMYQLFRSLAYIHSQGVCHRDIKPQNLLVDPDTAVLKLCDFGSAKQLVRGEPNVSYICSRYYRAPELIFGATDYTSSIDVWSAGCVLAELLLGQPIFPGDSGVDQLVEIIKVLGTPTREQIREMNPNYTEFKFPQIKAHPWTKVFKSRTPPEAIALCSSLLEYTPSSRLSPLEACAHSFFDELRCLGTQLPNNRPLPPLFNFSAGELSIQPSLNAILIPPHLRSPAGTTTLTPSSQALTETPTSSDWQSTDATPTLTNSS
p38 MAPKα isoform (MAPK14), sequence (Q16539 whole entry, canonical isoform): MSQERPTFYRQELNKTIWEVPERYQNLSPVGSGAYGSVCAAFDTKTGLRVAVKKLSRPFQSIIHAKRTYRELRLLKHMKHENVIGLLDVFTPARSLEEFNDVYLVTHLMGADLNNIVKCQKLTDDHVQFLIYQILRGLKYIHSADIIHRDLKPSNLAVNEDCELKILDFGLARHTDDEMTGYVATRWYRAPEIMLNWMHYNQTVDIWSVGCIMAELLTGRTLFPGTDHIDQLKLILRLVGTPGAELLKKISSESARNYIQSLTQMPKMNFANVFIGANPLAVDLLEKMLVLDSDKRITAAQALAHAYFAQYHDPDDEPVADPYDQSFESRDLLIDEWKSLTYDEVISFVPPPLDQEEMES

Row | Compound | IC50 (GSK 3α) [nM] | IC50 (PBMCs [1]) [nM] | IC50 [2] [nM] | IC50 (c-Src) [nM] | IC50 (Syk) [nM] | IC50 (PBMCs [3]) [nM] | IC50 (HT29 cells) [nM]
1 | CC[Si](CC)(CC)c1cc(NC(=O)Nc2ccc(Oc3ccnc(Nc4ccccc4)n3)c3ccccc23)n(-c2ccc(C)cc2)n1 [Example 4, 1-(4-((2-(phenylamino)pyrimidin-4-yl)oxy)naphthalen-1-yl)-3-(1-(p-tolyl)-3-(triethylsilyl)-1H-pyrazol-5-yl)urea] | > 10000 | 95.9 | – | – | – | – | –
2 | Cc1ccc(-n2nc([Si](C)(C)C(C)(C)C)cc2NC(=O)Nc2ccc(Oc3ccnc(Nc4ccccc4)n3)c3ccccc23)cc1 [Example 5, 1-(3-(tert-Butyldimethylsilyl)-1-(p-tolyl)-1H-pyrazol-5-yl)-3-(4-((2-(phenylamino)pyrimidin-4-yl)oxy)naphthalen-1-yl)urea] | 5010 | 113 | – | – | – | – | –
3 | Cc1ccc(-n2nc([Si](C)(C)C)cc2NC(=O)Nc2ccc(Oc3ccnc(Nc4ccc5onc(N)c5c4)n3)c3ccccc23)cc1 [Example 8, 1-(4-((2-((3-Aminobenzo[d]isoxazol-5-yl)amino)pyrimidin-4-yl)oxy)naphthalen-1-yl)-3-(1-(p-tolyl)-3-(trimethylsilyl)-1H-pyrazol-5-yl)urea] | 2150 | 3.9 | > 1000 | 37 | 269 | – | –
4 | Cc1ccc(-n2nc([Si](C)(C)C)cc2NC(=O)Nc2ccc(Oc3ccnc(Nc4cccc(OCCN(C)C)c4)n3)c3ccccc23)cc1 [Example 11, 1-(4-((2-((3-(2-(Dimethylamino)ethoxy)phenyl)amino)pyrimidin-4-yl)oxy)naphthalen-1-yl)-3-(1-(p-tolyl)-3-(trimethylsilyl)-1H-pyrazol-5-yl)urea] | 690 | 1.4 | – | – | – | – | –
5 | COc1cc(Nc2nccc(Oc3ccc(NC(=O)Nc4cc([Si](C)(C)C)nn4-c4ccc(C)cc4)c4ccccc34)n2)cc(C(=O)NCCN2CCOCC2)c1 [Example 12, 3-Methoxy-N-(2-morpholinoethyl)-5-((4-((4-(3-(1-(p-tolyl)-3-(trimethylsilyl)-1H-pyrazol-5-yl)ureido)naphthalen-1-yl)oxy)pyrimidin-2-yl)amino)benzamide] | 1920 | 0.9 | 142 | 10 | 17 | 28.2 | –
6 | Cc1ccc(-n2nc([Si](C)(C)C)cc2NC(=O)Nc2ccc(Oc3ccnc(Nc4ccccn4)n3)c3ccccc23)cc1 [Example 14, 1-(4-((2-(pyridin-2-ylamino)pyrimidin-4-yl)oxy)naphthalen-1-yl)-3-(1-(p-tolyl)-3-(trimethylsilyl)-1H-pyrazol-5-yl)urea] | > 10000 | 36.6 | – | 360 | > 1000 | – | –
7 | Cc1cc(Nc2nccc(Oc3ccc(NC(=O)Nc4cc([Si](C)(C)C)nn4-c4ccc(OCCN5CCOCC5)cc4)c4ccccc34)n2)cc2cn[nH]c12 [Example 15, 1-(4-((2-((7-Methyl-1H-indazol-5-yl)amino)pyrimidin-4-yl)oxy)naphthalen-1-yl)-3-(1-(4-(2-morpholinoethoxy)phenyl)-3-(trimethylsilyl)-1H-pyrazol-5-yl)urea] | 3490 | 2.2 | 253 | 15 | 24 | 30.7 | 6.5
8 | CC[Si](C)(C)c1cc(NC(=O)Nc2ccc(Oc3ccnc(Nc4ccccc4)n3)c3ccccc23)n(-c2ccc(C)cc2)n1 [Example 16, 1-(3-(Ethyldimethylsilyl)-1-(p-tolyl)-1H-pyrazol-5-yl)-3-(4-((2-(phenylamino)pyrimidin-4-yl)oxy)naphthalen-1-yl)urea] | > 10000 | 14.8 | – | 116 | > 1000 | – | –
9 | Cc1ccc(-n2nc([Si](C)(C)C)cc2NC(=O)Nc2ccc(Oc3ccnc(Nc4cc(C)c5[nH]ncc5c4)n3)c(Cl)c2Cl)cc1 [Example 17, 1-(2,3-Dichloro-4-((2-((7-methyl-1H-indazol-5-yl)amino)pyrimidin-4-yl)oxy)phenyl)-3-(1-(p-tolyl)-3-(trimethylsilyl)-1H-pyrazol-5-yl)urea] | > 10000 | 8 | – | – | – | – | –
10 | COc1cc(Nc2nccc(Oc3ccc(NC(=O)Nc4cc([Si](C)(C)C)nn4-c4ccc(C)cc4)c(Cl)c3Cl)n2)cc(OCCN2CCOCC2)c1 [Example 18, 1-(2,3-Dichloro-4-((2-((3-methoxy-5-(2-morpholinoethoxy)phenyl)amino)pyrimidin-4-yl)oxy)phenyl)-3-(1-(p-tolyl)-3-(trimethylsilyl)-1H-pyrazol-5-yl)urea] | > 10000 | 2.7 | > 1000 | 41 | 59 | – | –
11 | COc1cc(Nc2nccc(Oc3ccc(NC(=O)Nc4cc([Si](C)(C)C)nn4-c4ccc(C)cc4)c4ccccc34)n2)cc(C(=O)NC[C@H](O)[C@@H](O)[C@H](O)[C@H](O)CO)c1 [Example 19, 3-Methoxy-N-((2S,3R,4R,5R)-2,3,4,5,6-pentahydroxyhexyl)-5-((4-((4-(3-(1-(p-tolyl)-3-(trimethylsilyl)-1H-pyrazol-5-yl)ureido)naphthalen-1-yl)oxy)pyrimidin-2-yl)amino)-benzamide] | 6730 | 76 | – | – | – | – | –
12 | Cc1ccc(-n2nc([Si](C)(C)C)cc2NC(=O)Nc2ccc(Oc3ccnc(Nc4ccc5c(c4)CNC5=O)n3)c3ccccc23)cc1 [Example 20, 1-(4-((2-((1-Oxoisoindolin-5-yl)amino)pyrimidin-4-yl)oxy)naphthalen-1-yl)-3-(1-(p-tolyl)-3-(trimethylsilyl)-1H-pyrazol-5-yl)urea] | 345 | 1.8 | – | – | – | – | –
